Tested on: heme oxygenase-1 (HO-1)
Assay: High throughput screen: HO-1 promoter/enhancer luciferase reporter (pHOGL3/4.5+220) in stable HEK293 cells
Format: cell-based
Settings: Homo sapiens; for EC50: Table 1, evaluation of biaryl aminomaleimides, HO-1 induction; for Emax: Table 1, unit inferred, Emax as % of 5 μM hemin
Protocol: The generation of the pHOGL3/4.5+220 construct is described in Deshane, et al. (2010) “SpI regulates chromatin looping between an intronic enhancer and distal promoter of the human heme oxygenase-1 gene in renal cells” J Biol Chem 285(22): 16476-86. See also FIG. 1.
Briefly, BamHI sites were added to the 4.5-kb PCR product generated by long-range PCR from a bacterial artificial chromosome clone containing portions of chromosome 22 (accession no. Z82244), including the HO-1 gene. This fragment was cloned into the BglII restriction site of the multiple cloning region to make the parental clone (pHOGL3/4.5). The 220-bp intronic enhancer was amplified with SalI sites on either end and cloned into the SalI site of the vector to generate pHOGL3/4.5+220.
In order to generate cells that stably express luciferase expression vectors that lack a mammalian antibiotic selection cassette, HEK293 cells were co-transfected with either pHOGL3/4.5+220 (Deshane et al, 2010) or the Triple Mutant construct (Liby, Hock et al, 2005; Hock et al, 2007) and pcDNA3.1 Zeocin using Lipofectamine 2000. Cells were cultured in Zeocin (400 ug/ml; Invitrogen) for selection. Individual clones were sorted by flow cytometry and plated into a 96-well plate at a density of one cell per well. Clones were maintained and expanded in complete media (DMEM/10% FBS/1× antibiotic-antimycotic) supplemented with 100 ug/ml Zeocin, and incubated at 37° C. in 5% carbon dioxide. Incorporation of the Luciferase expression vectors was validated by assaying for luciferase.
A library of over 150,000 compounds, as well as a library of over 4,000 FDA approved compounds, were used in the HTS assay. […] This led to the identification of approximately 800 compounds that induce HO-1 and have desirable chemical structures. […] The In-Cell Western assay was optimized to screen for endogenous HO-1 in a high throughput platform, and results were validated by Western blot, real-time PCR, and enzyme activity assays. Additional RNA sequencing studies highlighted a role for the transcription factor Nrf2 and other targets in HO-1 induction by several small molecules.

| Compound | EC50 | Emax |
| --- | --- | --- |
| O=C1C=C(Nc2cc(F)c(O)c(F)c2)C(=O)N1c1ccccc1C(F)(F)F [Compound 47] | 19.7 µM | 91.1% |
| NC(=O)c1cccc(N2C(=O)C=C(Nc3cc(F)c(O)c(F)c3)C2=O)c1 [Compound 51] | 15.4 µM | 62.4% |
| O=C1C=C(Nc2cc(O)c(Cl)cc2Cl)C(=O)N1c1ccccc1 [Compound 20] | > 50 µM |  |
| O=C1C=C(Nc2cc(F)c(O)c(F)c2)C(=O)N1C1CCCCC1 [Compound 67] | > 50 µM | 25.6% |

From patent US11753374B2, “Compounds for the treatment of acute and chronic kidney disease” (Southern Research Institute, priority 2020, dated 2023)
